Where “and” joins values, the source holds several entries; their conditions need not be identical. Equal values may be shown once.
What was measured:
Type in all cases: cell-based, human
A549cisR cells [1] = assay: Apoptotic cell death (annexin V/PI staining); settings: cisplatin 2 μg/ml, 48 h, n=1-4: biological replicates, listed as cis
ATP = assay: Intracellular ATP level; parameters: unit not given here
Description: (§1) Cellular metabolic states were examined through various assays. To gauge the levels of total intracellular or mitochondrial reactive oxygen species (ROS), cells were stained with CM-H2DCFDA or mitoSOX, respectively. Intracellular H2O2, NADPH, acetyl-CoA, and GSH/GSSG ratios were quantified using commercial assay kits as listed in the Reagents. Intracellular ATP levels were determined utilizing the ATP bioluminescent somatic cell assay and normalized to the total protein concentrations. The de novo synthesized RNA and proteins were assessed in cancer cells using commercial assays following the manufacturer’s protocols. In brief, O-propargyl-puromycin or uridine analog, 5-EU, was applied to stop translation or modify RNA. Polypeptides or modified RNA were measured using fluorescent azide with Ex/Em at 494/521 nm. PDC activity was determined by measuring the reduction of NAD+ to NADH during the conversion of pyruvate into acetyl-CoA.

cellular ROS = assay: Cellular ROS level (CM-H2DCFDA staining)
Description: as §1

HCT116 cells = assay: Apoptotic cell death (annexin V/PI staining); settings: Supple Fig 6A
Description: (§2) Cell viability was determined using the CellTiter-Glo Luminescent Cell Viability Assay. […] Subsequently, the cells were cultured in complete medium for an additional 10 days, and the resulting colonies were visualized by staining with crystal violet and quantified using ImageJ software. For cell cycle analysis, cells fixed with 70% ethanol were stained with RNase A (100 µg/mL) and propidium iodide (50 μg/ml) for 30 min at 37 °C, and DNA content distribution was measured using flow cytometry (BD Symphony A3) and analyzed with FlowJo software (v10.9). Apoptotic cell death was assessed via FITC-conjugated annexin V and propidium iodide staining.
(§3) Colon cancer cell lines, HCT116 (a) and HT-29 (b), were stably transduced with DLAT shRNA harboring lentivirus, followed by annexin V staining and CellTiter Glo Viability assay. Error bars represent SD and are from 3 independent biological replicates. P values were obtained by one-way ANOVA.
(§4) (1 picture or pasted object on this page, not shown here)

HT-29 cells = assay: Apoptotic cell death (annexin V/PI staining); settings: Supple Fig 6B
Description: as §2, §3, §4

KB-3-1cisR cells [2] = assay: Colony formation assay; settings: 5 μg/ml cisplatin 24 h, then 10 days, normalised, n=1-3: biological replicates
Description: as §2

A549cisR cells [3] = assay: Colony formation assay; settings: 2 μg/ml cisplatin 24 h, then 10 days, normalised, n=1-3: biological replicates
Description: as §2

GSH/GSSG = GSH/GSSG ratio (GSH/GSSG-Glo)
KB-3-1cisR cells [4] = assay: Apoptotic cell death (annexin V/PI staining)
[5] = A549cisR, CTL, sheet Figure 5G, replicate n=1
[6] = A549cisR, CTL, sheet Figure 5G, replicate n=2
[7] = A549cisR, CTL, sheet Figure 5G, replicate n=3
[8] = KB-3-1cisR, CTL, sheet Figure 5G, replicate n=1
[9] = KB-3-1cisR, CTL, sheet Figure 5G, replicate n=2
[10] = KB-3-1cisR, CTL, sheet Figure 5G, replicate n=3
[11] = KB-3-1cisR, shDLAT+Flag-MTHFD2 (K44Q), sheet Figure 5G, replicate n=1
[12] = KB-3-1cisR, shDLAT+Flag-MTHFD2 (K44Q), sheet Figure 5G, replicate n=2

SMILES: N.N.[Cl][Pt][Cl] [cisplatin]
- Apoptotic death (A549cisR cells [1]; A549cisR pLKO.1+pLHCX): 7.05 and 8.53 and 8.99 and 9.51
- Apoptotic death (A549cisR cells [1]; A549cisR shDLAT+DLAT(WT) rescue): 7.31 and 8.35 and 8.93 and 10.11
- ATP level (ATP; A549cisR, pLKO.1, n=1 (Figure 3B)): 1.319
- ATP level (ATP; A549cisR, pLKO.1, n=2 (Figure 3B)): 1.28
- ATP level (ATP; A549cisR, pLKO.1, n=3 (Figure 3B)): 1.1923
- ATP level (ATP; A549cisR, shDLAT, n=1 (Figure 3B)): 1.405
- ATP level (ATP; A549cisR, shDLAT, n=2 (Figure 3B)): 1.318
- ATP level (ATP; A549cisR, shDLAT, n=3 (Figure 3B)): 1.292
- ATP level (ATP; KB-3-1cisR, pLKO.1, n=1 (Figure 3B)): 1.593
- ATP level (ATP; KB-3-1cisR, pLKO.1, n=2 (Figure 3B)): 1.725
- ATP level (ATP; KB-3-1cisR, pLKO.1, n=3 (Figure 3B)): 1.722
- ATP level (ATP; KB-3-1cisR, shDLAT, n=1 (Figure 3B)): 1.707
- ATP level (ATP; KB-3-1cisR, shDLAT, n=2 (Figure 3B)): 1.7048
- ATP level (ATP; KB-3-1cisR, shDLAT, n=3 (Figure 3B)): 1.693
- ROS level (cellular ROS; A549cisR cells, pLKO.1, n=1): 0.9837
- ROS level (cellular ROS; A549cisR cells, pLKO.1, n=2): 1.0031
- ROS level (cellular ROS; A549cisR cells, pLKO.1, n=3): 1.0132
- ROS level (cellular ROS; [5]): 1.052
- ROS level (cellular ROS; [6]): 0.9938
- ROS level (cellular ROS; [7]): 0.9539
- ROS level (cellular ROS; KB-3-1cisR cells, pLKO.1, n=1): 1.037
- ROS level (cellular ROS; KB-3-1cisR cells, pLKO.1, n=2): 0.9651
- ROS level (cellular ROS; KB-3-1cisR cells, pLKO.1, n=3): 0.9984
- ROS level (cellular ROS; KB-3-1cisR cells, shDLAT, n=1): 2.065
- ROS level (cellular ROS; KB-3-1cisR cells, shDLAT, n=2): 2.047
- ROS level (cellular ROS; [8]): 0.9879
- ROS level (cellular ROS; [9]): 1.001
- ROS level (cellular ROS; [10]): 1.011
- ROS level (cellular ROS; [11]): 1.351
- ROS level (cellular ROS; [12]): 1.32
- Apoptotic death (HCT116 cells; HCT116, pLKO.1 control cells + cis, replicate n=2): 17.9
- Apoptotic death (HCT116 cells; HCT116, shDLAT cells + cis, replicate n=2): 15.5
- Apoptotic death (HCT116 cells; HCT116, shDLAT cells + cis, replicate n=3): 18.3
- Apoptotic death (HT-29 cells; HT-29, pLKO.1 control cells + cis, replicate n=2): 20
- Apoptotic death (HT-29 cells; HT-29, pLKO.1 control cells + cis, replicate n=3): 20.2
- Apoptotic death (HT-29 cells; HT-29, shDLAT cells + cis, replicate n=1): 20.2
- Apoptotic death (HT-29 cells; HT-29, shDLAT cells + cis, replicate n=2): 22.2
- Apoptotic death (HT-29 cells; HT-29, shDLAT cells + cis, replicate n=3): 22.9
- Colony formation assay (KB-3-1cisR cells [2]; KB-3-1cisR pLKO.1): 0.9446 and 0.763 and 0.8564
- Colony formation assay (KB-3-1cisR cells [2]; KB-3-1cisR shDLAT #1): 0.1843 and 0.1505 and 0.2102
- Colony formation assay (KB-3-1cisR cells [2]; KB-3-1cisR shDLAT #2): 0.2154 and 0.1946 and 0.1246
- Colony formation assay (A549cisR cells [3]; A549cisR pLKO.1): 1.111 and 0.9965 and 1.059
- Colony formation assay (A549cisR cells [3]; A549cisR shDLAT #1): 0.545 and 0.5035 and 0.4723
- Colony formation assay (A549cisR cells [3]; A549cisR shDLAT #2): 0.5398 and 0.5242 and 0.4931
- GSH/GSSG (GSH/GSSG; A549cisR cells, pLKO.1, n=1): 18.3651
- GSH/GSSG (GSH/GSSG; A549cisR cells, pLKO.1, n=3): 19.3614
- GSH/GSSG (GSH/GSSG; A549cisR cells, pLKO.1, n=4): 18.0395
- GSH/GSSG (GSH/GSSG; A549cisR cells, shDLAT, n=1): 8.402
- GSH/GSSG (GSH/GSSG; A549cisR cells, shDLAT, n=2): 8.901
- GSH/GSSG (GSH/GSSG; A549cisR cells, shDLAT, n=4): 10.9995
- GSH/GSSG (GSH/GSSG; [5]): 25.1517
- GSH/GSSG (GSH/GSSG; [6]): 26.0996
- GSH/GSSG (GSH/GSSG; [7]): 23.5884
- GSH/GSSG (GSH/GSSG; A549cisR, shDLAT+Flag-MTHFD2 (K44Q), sheet Figure 5G, replicate n=1): 31.9457
- GSH/GSSG (GSH/GSSG; A549cisR, shDLAT+Flag-MTHFD2 (K44Q), sheet Figure 5G, replicate n=2): 29.1783
- GSH/GSSG (GSH/GSSG; A549cisR, shDLAT+Flag-MTHFD2 (K44Q), sheet Figure 5G, replicate n=3): 30.4077
- GSH/GSSG (GSH/GSSG; A549cisR, shDLAT+Flag-MTHFD2 (K44R), sheet Figure 5G, replicate n=1): 8.894
- GSH/GSSG (GSH/GSSG; A549cisR, shDLAT+Flag-MTHFD2 (K44R), sheet Figure 5G, replicate n=2): 10.2513
- GSH/GSSG (GSH/GSSG; A549cisR, shDLAT+Flag-MTHFD2 (K44R), sheet Figure 5G, replicate n=3): 9.633
- GSH/GSSG (GSH/GSSG; A549cisR, shDLAT, sheet Figure 5G, replicate n=1): 8.501
- GSH/GSSG (GSH/GSSG; A549cisR, shDLAT, sheet Figure 5G, replicate n=2): 9.861
- GSH/GSSG (GSH/GSSG; A549cisR, shDLAT, sheet Figure 5G, replicate n=3): 10.404
- GSH/GSSG (GSH/GSSG; KB-3-1cisR cells, pLKO.1, n=1): 14.1658
- GSH/GSSG (GSH/GSSG; KB-3-1cisR cells, pLKO.1, n=2): 13.5059
- GSH/GSSG (GSH/GSSG; KB-3-1cisR cells, pLKO.1, n=3): 14.1711
- GSH/GSSG (GSH/GSSG; KB-3-1cisR cells, pLKO.1, n=4): 12.6758
- GSH/GSSG (GSH/GSSG; KB-3-1cisR cells, shDLAT, n=3): 6.177
- GSH/GSSG (GSH/GSSG; KB-3-1cisR cells, shDLAT, n=4): 6.252
- GSH/GSSG (GSH/GSSG; [8]): 15.3805
- GSH/GSSG (GSH/GSSG; [9]): 14.4145
- GSH/GSSG (GSH/GSSG; [10]): 16.7699
- GSH/GSSG (GSH/GSSG; [11]): 25.3381
- GSH/GSSG (GSH/GSSG; [12]): 26.6695
- GSH/GSSG (GSH/GSSG; KB-3-1cisR, shDLAT+Flag-MTHFD2 (K44Q), sheet Figure 5G, replicate n=3): 26.7501
- GSH/GSSG (GSH/GSSG; KB-3-1cisR, shDLAT+Flag-MTHFD2 (K44R), sheet Figure 5G, replicate n=1): 6.376
- GSH/GSSG (GSH/GSSG; KB-3-1cisR, shDLAT+Flag-MTHFD2 (K44R), sheet Figure 5G, replicate n=2): 6.273
- GSH/GSSG (GSH/GSSG; KB-3-1cisR, shDLAT+Flag-MTHFD2 (K44R), sheet Figure 5G, replicate n=3): 6.832
- GSH/GSSG (GSH/GSSG; KB-3-1cisR, shDLAT, sheet Figure 5G, replicate n=1): 7.027
- GSH/GSSG (GSH/GSSG; KB-3-1cisR, shDLAT, sheet Figure 5G, replicate n=2): 6.914
- GSH/GSSG (GSH/GSSG; KB-3-1cisR, shDLAT, sheet Figure 5G, replicate n=3): 7.456
- Apoptotic death (KB-3-1cisR cells [4]; KB-3-1cisR pLKO.1+pLHCX, cisplatin 5 μg/ml, 48 h, n=1-4: biological replicates, listed as cis): 8.39 and 8.75 and 8.86 and 8.83
- Apoptotic death (KB-3-1cisR cells [4]; KB-3-1cisR shDLAT+DLAT(WT) rescue, cisplatin 5 μg/ml, 48 h, n=1-4: biological replicates, listed as cis): 6.91 and 7.48 and 7.23
- Apoptotic death (KB-3-1cisR cells [4]; KB-3-1cisR, KQ, sheet Figure 6E, replicate n=3): 10
- Apoptotic death (KB-3-1cisR cells [4]; KB-3-1cisR, shDLAT, sheet Figure 5F, replicate n=1): 63.6
- Apoptotic death (KB-3-1cisR cells [4]; KB-3-1cisR, shDLAT, sheet Figure 5F, replicate n=2): 64.3
